Data published in publication PMC3929365, “Benzimidazoisoquinolines: A New Class of Rapidly Metabolized Aryl Hydrocarbon Receptor (AhR) Ligands that Induce AhR-Dependent Tregs and Prevent Murine Graft-Versus-Host Disease” (PLoS ONE, 2014).

Test system: AhR target genes
Assay: Expression of known AhR target genes in Hepa1 cells (RT-qPCR)
Type: cell-based, mouse
Conditions: 10 nM, eight hours
Procedure: Supplementary file pone.0088726.s001.tif: Figure S1 10-Cl-BBQ induces the expression of known AhR target genes. Hepa1 cells were treated with 10-Cl-BBQ (10 nM), TCDD (10 nM), or vehicle (DMSO) for eight hours. RNA was extracted and RT-qPCR was performed for a select set of known AhR target genes. AHRR: aryl hydrocarbon receptor repressor, ALDH3A1: aldehyde dehydrogenase family 3; subfamily A1, CYP1b1: cytochrome P450 1b1; Gstm3: glutathione S-transferase, mu 3; GST-Ya: glutathione S transferase, alpha 1; NQO1: NAD(P)H dehydrogenase quinone 1; UGT2b34: UDP glucuronosyltransferase 2 family, polypeptide B34. (TIF) Click here for additional data file.

Structure (SMILES): O=c1c2cccc3cccc(c32)c2nc3ccc(Cl)cc3n12 [10-Cl-BBQ, 10-chloro-7H-benzimidazo[2,1-a]benzo[de]isoquinolin-7-one]
- induction of genes associated with AhR activation in hepatocytes: induced a battery of genes
